From patent US9126999B2, “Tetrahydropyrazolopyrimidine compounds” (EISAI R&D MANAGEMENT CO., LTD., priority 2012, dated 2015)

Tests used:
Human TLR4 [1] = target: T1, Human TLR4 (Homo sapiens, UniProt O00206); test: HEK-293 NF-kappaB luciferase reporter assay, LPS stimulus; assay type: cell-based; set-up: engineered to stably and individually express human TLR4, TLR7 or TLR9 full-length ORF cDNAs; expressed in transfected cells; host or cells: HEK-293 (ATCC) with ELAM-1 NF-kappaB luciferase reporter; conditions: ligand LPS, analyte NFkB-luciferase
T1 sequence (O00206 24-839): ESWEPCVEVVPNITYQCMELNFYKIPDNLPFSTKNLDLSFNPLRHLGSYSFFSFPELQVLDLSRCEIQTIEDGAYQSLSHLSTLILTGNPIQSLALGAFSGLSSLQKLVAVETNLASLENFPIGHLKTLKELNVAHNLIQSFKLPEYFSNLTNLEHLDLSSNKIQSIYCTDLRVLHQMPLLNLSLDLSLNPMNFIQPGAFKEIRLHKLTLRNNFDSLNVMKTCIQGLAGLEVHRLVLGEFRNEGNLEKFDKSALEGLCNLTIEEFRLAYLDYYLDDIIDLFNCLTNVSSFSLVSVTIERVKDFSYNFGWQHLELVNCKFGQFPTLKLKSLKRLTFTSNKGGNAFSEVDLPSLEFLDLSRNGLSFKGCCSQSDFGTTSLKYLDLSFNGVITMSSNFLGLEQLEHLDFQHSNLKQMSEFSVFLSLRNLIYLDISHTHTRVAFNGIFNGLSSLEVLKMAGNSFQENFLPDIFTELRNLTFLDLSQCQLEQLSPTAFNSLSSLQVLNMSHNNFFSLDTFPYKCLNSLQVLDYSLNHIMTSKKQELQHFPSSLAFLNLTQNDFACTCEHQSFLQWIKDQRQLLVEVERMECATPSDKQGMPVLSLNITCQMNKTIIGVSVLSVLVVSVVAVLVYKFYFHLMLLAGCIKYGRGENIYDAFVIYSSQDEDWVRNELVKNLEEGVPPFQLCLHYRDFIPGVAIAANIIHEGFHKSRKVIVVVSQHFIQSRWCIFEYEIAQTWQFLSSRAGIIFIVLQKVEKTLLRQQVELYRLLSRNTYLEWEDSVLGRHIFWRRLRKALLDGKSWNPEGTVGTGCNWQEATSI
T1 sequence (Q9Y6Y9 19-160 partner): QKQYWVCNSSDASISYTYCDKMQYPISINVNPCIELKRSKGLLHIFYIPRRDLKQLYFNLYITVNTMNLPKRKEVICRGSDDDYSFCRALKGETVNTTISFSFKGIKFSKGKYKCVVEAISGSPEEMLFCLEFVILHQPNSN
Description: In vitro pharmacology: HEK-293 cells (ATCC) were engineered to stably express a NF-kappaB transcription factor inducible E-selectin (ELAM-1) luciferase reporter derived from the plasmid pGL3 (Promega) containing base pairs −2241 bp to −254 bp from the promoter of the human E-selectin gene (Accession No. NM_000450). These cells were then subsequently engineered to stably and individually express human TLR4, TLR7 or TLR9 full-length ORF cDNAs. Human TLR4 cDNA (Accession No. NM_138554) was cloned into pcDNA 3.0 expression vector (Invitrogen). TLR4 transfected cells were also engineered to express human MD-2 co-receptor [MD-2 cDNA (Accession No. NM_015364) was cloned into the pEF-BOS vector] and were supplemented with 10 nM soluble CD14 (R&D Systems) in the media to optimize LPS responsiveness. Human TLR9 cDNA (Accession No. NM_017442) was cloned into the pBluescript II KS vector (Agilent). Human TLR7 cDNA (Accession No. NM_016562) was obtained from OriGene. HEK-293 cells stably expressing human TLR8 (Accession No. NM_138636) or mouse TLR7 (Accession No. NM_133211) were purchased from InvivoGen and were then stably transfected with pNiFty2(NF-kappaB)-luciferase reporter plasmid (InvivoGen). […]

Human TLR1/2 = target: T2, Human TLR1/2 (Homo sapiens, UniProt O60603+Q15399); test: Human PBMC cell-based assay, Pam3CSK4 stimulus, IL-6 ELISA; conditions: Hu PBMC; ligand Pam3CSK4; analyte IL-6
T2 construct: endogenous in cells; host or cells: primary human PBMC from healthy donor blood
T2 sequence (Q15399 25-786): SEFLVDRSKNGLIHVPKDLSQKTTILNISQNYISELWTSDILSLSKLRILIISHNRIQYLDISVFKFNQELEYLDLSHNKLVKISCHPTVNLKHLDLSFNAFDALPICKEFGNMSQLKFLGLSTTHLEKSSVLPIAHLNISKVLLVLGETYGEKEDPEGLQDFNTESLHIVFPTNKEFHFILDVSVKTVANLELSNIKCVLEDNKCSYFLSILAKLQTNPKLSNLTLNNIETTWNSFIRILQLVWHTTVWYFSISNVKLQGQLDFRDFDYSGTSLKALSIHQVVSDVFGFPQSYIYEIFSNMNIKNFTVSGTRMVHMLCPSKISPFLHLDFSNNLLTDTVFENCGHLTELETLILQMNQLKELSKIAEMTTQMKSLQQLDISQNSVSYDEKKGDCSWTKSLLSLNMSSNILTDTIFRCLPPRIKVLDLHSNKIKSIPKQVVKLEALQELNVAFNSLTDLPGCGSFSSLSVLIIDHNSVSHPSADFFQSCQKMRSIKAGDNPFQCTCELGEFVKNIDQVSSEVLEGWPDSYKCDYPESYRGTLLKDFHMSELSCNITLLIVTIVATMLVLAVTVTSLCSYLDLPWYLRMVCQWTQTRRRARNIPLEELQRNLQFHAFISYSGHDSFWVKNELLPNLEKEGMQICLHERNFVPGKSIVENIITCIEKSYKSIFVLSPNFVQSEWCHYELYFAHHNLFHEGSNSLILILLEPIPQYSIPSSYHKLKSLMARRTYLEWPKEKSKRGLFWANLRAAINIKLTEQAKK
T2 sequence (O60603 19-784 limits assumed): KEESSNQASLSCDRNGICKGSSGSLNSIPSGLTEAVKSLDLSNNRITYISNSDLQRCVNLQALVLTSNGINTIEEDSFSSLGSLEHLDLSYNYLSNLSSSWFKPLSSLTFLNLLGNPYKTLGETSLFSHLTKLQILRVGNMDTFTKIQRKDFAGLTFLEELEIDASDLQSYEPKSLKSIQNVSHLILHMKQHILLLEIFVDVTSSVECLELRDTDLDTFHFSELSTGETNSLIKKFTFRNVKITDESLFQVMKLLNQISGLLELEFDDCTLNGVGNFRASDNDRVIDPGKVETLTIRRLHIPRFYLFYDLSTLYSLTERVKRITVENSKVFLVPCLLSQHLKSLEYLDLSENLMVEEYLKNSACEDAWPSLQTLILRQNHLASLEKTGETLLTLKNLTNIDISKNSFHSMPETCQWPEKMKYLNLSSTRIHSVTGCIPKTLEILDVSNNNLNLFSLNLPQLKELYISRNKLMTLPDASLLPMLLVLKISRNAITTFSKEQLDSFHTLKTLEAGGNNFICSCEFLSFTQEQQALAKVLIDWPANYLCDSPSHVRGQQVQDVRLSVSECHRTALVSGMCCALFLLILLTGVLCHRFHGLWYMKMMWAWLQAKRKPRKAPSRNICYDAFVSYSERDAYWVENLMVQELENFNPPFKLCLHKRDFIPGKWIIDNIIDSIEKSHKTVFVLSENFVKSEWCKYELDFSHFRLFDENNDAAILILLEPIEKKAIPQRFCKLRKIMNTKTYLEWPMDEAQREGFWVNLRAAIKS
Description: (§1) Human peripheral blood mononuclear cells (PBMC) were isolated from freshly-drawn heparinized (10 USP units/ml, Hospira, Lakeforest, Ill.) healthy donor whole blood by density gradient (Histopaque® 1077, Sigma, Inc., St. Louis, Mo.). Briefly, 25 ml blood was diluted with 15 ml PBS (without Ca^2+, Mg^2+) in a 50 ml conical tube, and 12 ml Histopaque was underlaid using a spinal needle. Tubes were centrifuged for 45 minutes at 1200 rpm (350×g), and PBMC were collected from the buffy coat. Cells were then washed twice in PBS, and red blood cells were lysed by suspension in 5 ml ammonium chloride solution (1× Red Blood Cell Lysis Buffer, eBioscience) for 5 minutes at room temperature. […]
(§2) Antagonist compounds solubilized and serial diluted in 100% DMSO were added in triplicate to cells to yield a final concentration of 0.1% DMSO (v/v). […] Cell culture supernatants were collected, and levels of various human cytokines were assessed as indicated by standard ELISA procedure according to the manufacturer's recommended protocol (BD Biosciences, Inc., San Diego, Calif.).

Human TLR4 [2] = target: T1, Human TLR4; test: Human PBMC cell-based assay, LPS stimulus, IL-6 ELISA; set-up: endogenous in cells; host or cells: primary human PBMC from healthy donor blood; conditions: Hu PBMC; ligand LPS; analyte IL-6
Description: as §1, §2

Measured: IC50

COc1ccc([C@@H]2C[C@H](C(F)(F)F)n3nc(-c4ccc(C(=O)N5CCNCC5)cc4)cc3N2)cc1OC [ER-892887, (4-((5S,7R)-5-(3,4-dimethoxyphenyl)-7-(trifluoromethyl)-4,5,6,7-tetrahydropyrazolo[1,5-a]pyrimidin-2-yl)phenyl)(piperazin-1-yl)methanone]
> 10 µM: all assays above
